Drawing on PMC7879681, “Baicalein inhibits heparin-induced Tau aggregation by initializing non-toxic Tau oligomer formation” (Cell Communication and Signaling : CCS, 2021), this text covers IC50 for one molecule.

The target in the assay is T1, full-length Tau (hTau40WT) (Homo sapiens, UniProt P10636).
T1 construct: gene MAPT; recombinant wild type human full-length Tau (hTau40WT)
Kind of assay: ThS fluorescence inhibition of heparin-induced aggregation of purified Tau; supported by ANS, SDS-PAGE, CD, TEM; dissolves preformed fibrils (DC50 […]). In kind it is biochemical.

T1 sequence (P10636 2-441 isoform P10636-8): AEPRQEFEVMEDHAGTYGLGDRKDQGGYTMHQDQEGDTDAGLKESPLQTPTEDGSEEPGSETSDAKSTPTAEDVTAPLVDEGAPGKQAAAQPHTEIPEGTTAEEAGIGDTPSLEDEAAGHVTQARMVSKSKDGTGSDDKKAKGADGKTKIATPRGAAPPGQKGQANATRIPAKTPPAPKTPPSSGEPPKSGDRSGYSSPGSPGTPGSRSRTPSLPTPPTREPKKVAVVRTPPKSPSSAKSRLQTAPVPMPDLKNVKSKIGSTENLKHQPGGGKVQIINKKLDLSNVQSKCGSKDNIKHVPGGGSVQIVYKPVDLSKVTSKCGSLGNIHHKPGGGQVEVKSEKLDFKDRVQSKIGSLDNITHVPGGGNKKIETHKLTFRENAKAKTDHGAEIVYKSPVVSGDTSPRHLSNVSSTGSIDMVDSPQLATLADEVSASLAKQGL

As a reminder, the IC50 is the point on the concentration scale where inhibition reaches its midpoint. In turn, `O=c1cc(-c2ccccc2)oc2cc(O)c(O)c(O)c12` [Baicalein] returned a 50% inhibitory concentration (IC50) of 27.7 µM.
